Data from US20020054880A1, “Anti-inflammatory, tolerogenic and immunoinhibiting properties of carbohydrate binding-peptides” (priority 1992, published 2002).

Columns and labels:
[1] = target: T1, ACS2P1-biotin binding to fetuin (Bordetella pertussis, UniProt P04978); conditions: saccharide 8 mM in PBS; 0.1 μg ACS2P1-biotin; fetuin 3 μg/ml; + enhancement, − inhibition
T1 construct: 2; ACS2P1-b; 9-23; made in house; host or cells: chemical synthesis

[2] = tested on: pertussis toxin binding to Chinese Hamster ovary (CHO) cell; experiment: CHO cell neutralization of pertussis toxin (cell clumping); assay type: cell-based; conditions: PT 2.4 ng/ml, peptide and PT 1 hour, triplicate
Protocol: Confluent monolayers of CHO cells were lifted from plastic tissue culture flasks with 0.25% trypsin and suspended at a concentration of 5×10^4 cells/ml in Ham's F12 media containing 10% fetal bovine serum (FBS). 100 μl of the cell suspension was added to 96 well tissue culture plates and were allowed to establish contact with the plastic for 24 to 48 hours. The expended media was then removed and filtered-sterilized peptide 5-fold dilutions ranging in concentration from 300 to 30 femptogram per ml (80 μl) in Ham' F12 media containing FBS were added to the CHO cells. […] The incubation mixtures were gently mixed and incubated at 37° C. for 1 hour in a CO2 incubator. The incubation mixtures were then removed and replaced with fresh media. The tissue culture plates were then incubated for 24 hours at 37° C., fixed with 100% methanol, and stained with Geimsa stain. Control experiments were done in the absence of peptide alone or in the absence of PT. All determinations were done in triplicate. […] The results reported in Table VIII show the maximum peptide concentration required to cause a 50% reduction in CHO cell clumping.

[3] = target: T2, SNA-biotin binding to fetuin (Bos taurus, UniProt P12763); experiment: biochemical; conditions: + enhancement, − inhibition; for Percent Changes in Binding Activity SNA/fetuin: peptide mg/mL: S2PL 1.2, ACS2P1 1.0, S2(14-2.3) 1.0, S2P2 1.1, S2P3 0.51, S2P4 0.98, S2P6 0.85, S3P1 3.2, S3P2 3.1, S3P3 4.5, S3P4 3.3, S3P5 0.48, S3P9a 1.7, SPYGRC 4.4, S2(WGA) 1.0, WGA (62-73) 1.0
T2 sequence (P12763 19-359): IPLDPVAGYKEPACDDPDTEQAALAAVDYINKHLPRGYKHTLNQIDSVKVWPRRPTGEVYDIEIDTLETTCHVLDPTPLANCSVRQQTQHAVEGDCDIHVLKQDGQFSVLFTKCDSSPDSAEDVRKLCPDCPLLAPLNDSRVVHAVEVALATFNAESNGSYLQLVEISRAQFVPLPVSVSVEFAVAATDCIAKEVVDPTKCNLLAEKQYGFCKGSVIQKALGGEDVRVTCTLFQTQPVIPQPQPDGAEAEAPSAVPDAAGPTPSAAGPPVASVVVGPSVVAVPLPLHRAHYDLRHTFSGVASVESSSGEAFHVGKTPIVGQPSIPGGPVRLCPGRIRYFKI
Protocol: (§1) The solution was removed by aspiration and replaced with 100 μl of 1% BSA in PBS containing 0.05% Tween 20 (PBST). After incubation for 2-4 hours at room temperature, the microtiter wells were washed four times with 300 μl of PBST. Peptides ranging in concentration from 0.5 to 4.5 mg/ml in PBS (40 μl) were added to each well and PT-biotin (10 μl containing 10 ng in PBS) was then added to the microtiter wells. After incubating for 1 hour, the binding reaction was stopped by aspirating the solutions and the plate was washed with PBST (300 μl). Horseradish peroxidase-conjugated avidin (100 μl, 1/3000 dilution in PBST to a concentration of 0.3 μg/ml) was then added to the wells, and the plates were incubated at ambient temperature for 1 hour. After washing the wells as described above, the substrate solution [1 mM ABTS in 5 mM citrate buffer, pH 4.2, containing 0.1% hydrogen peroxide, v/v) was added and the plates were incubated for 30 minutes. Color development was recorded at 405 nm using a Titertek Multiskan MC plate reader. Maximum binding was determined in the absence of peptide, and background binding was measured in wells coated with BSA only. Binding assays for each peptide were done in duplicate. Binding inhibition experiments utilizing SNA-, WGA-, and MAL-biotin were performed as described above using 10 ng of each biotinylated lectin in PBS.

[4] = target: T3, WGA-biotin binding to fetuin (Bos taurus, UniProt P12763); experiment: biochemical; conditions: + enhancement, − inhibition; for Percent Changes in Binding Activity WGA/fetuin: peptide mg/mL: S2PL 1.2, ACS2P1 1.0, S2(14-2.3) 1.0, S2P2 1.1, S2P3 0.51, S2P4 0.98, S2P6 0.85, S3P1 3.2, S3P2 3.1, S3P3 4.5, S3P4 3.3, S3P5 0.48, SPYGRC 4.4, S2(WGA) 1.0, WGA (62-73) 1.0
T3 sequence (P12763 19-359): T2 sequence (P12763 19-359)
Protocol: as §1

[5] = target: T4, PT-biotin binding to fetuin (Bos taurus, UniProt P12763); experiment: PT-biotin binding to fetuin, binding inhibition assay; parameters: species or system Bordetella pertussis; conditions: + enhancement, − inhibition; for Percent Changes in Binding Activity PT/fetuin: peptide mg/mL: S2PL 1.2, ACS2P1 1.0, S2(14-2.3) 1.0, S2P2 1.1, S2P3 0.51, S2P4 0.98, S2P6 0.85, S3P1 3.2, S3P2 3.1, S3P3 4.5, S3P4 3.3, S3P5 0.48, S3P9a 1.7, SPYGRC 4.4, S2(WGA) 1.0, WGA (62-73) 1.0
T4 construct: purchased Sigma Chemical Company (fetuin); Connaught Center for Biotechnology Research (PT)
T4 sequence (P12763 19-359): T2 sequence (P12763 19-359)
Protocol: (§2) Peptides ranging in concentration from 0.5 to 4.5 mg/ml in PBS (40 μl) were added to each well and PT-biotin (10 μl containing 10 ng in PBS) was then added to the microtiter wells. […] Horseradish peroxidase-conjugated avidin (100 μl, 1/3000 dilution in PBST to a concentration of 0.3 μg/ml) was then added to the wells, and the plates were incubated at ambient temperature for 1 hour. […] Color development was recorded at 405 nm using a Titertek Multiskan MC plate reader. […] Binding assays for each peptide were done in duplicate. Binding inhibition experiments utilizing SNA-, WGA-, and MAL-biotin were performed as described above using 10 ng of each biotinylated lectin in PBS.
(§3) Binding assays for each inhibitor concentration were done at least in duplicate, and the average value varied less than 15%.

[6] = target: T5, ACS2P1-biotin binding to asialofetuin (Bos taurus, UniProt P12763); experiment: Screening of S2 and S3 peptides for inhibition of ACS2P1-biotin binding to asialofetuin; conditions: peptide μM: ACS2P1 4.1, S2P2 42.5, SPYGRC 5520, S2P3 22.4, S2P4 6.0, S2P6 319, S3P1 1142, S3P2 934, S3P3 16.1, S3P4 6.4, S3P5 22.5; ACS2P1-biotin 0.1 μg; − inhibition, + enhancement
T5 construct: made in house
T5 sequence (P12763 19-359): T2 sequence (P12763 19-359)

Balb/c mice [7] = experiment: DTH inflammatory response, mouse footpad swelling assay; assay type: in vivo; conditions: 100 μg peptide into the tail vein 5 hours after challenge with 20 μg OVA; FIG. 2
Protocol: DTH inflammatory responses were measured using the mouse footpad swelling assay as described by Smith and Ziola^64. Briefly, groups of Balb/c mice (about 19-20 grams each) were immunized with 100 μg of the OVA antigen containing 20μg of the adjuvant (DDA—dimethyl-dioctadecylammonium bromide) which also induces a strong inflammatory DTH response. Seven days later, each group of mice was footpad-challenged with 20 μg of the OVA antigen (without adjuvant). The resulting inflammatory footpad swelling was measured with a Mitutoyo Engineering micrometer 24 hours after challenge.
To assess the effect of different peptides on the inflammatory DTH response, groups of mice received 100 μg of the following peptides- ACS2P1 (2275), SPYGRC (2283), and S3P9a. These peptides were injected as a solution into the tail vein, 5 hours after challenge. Control groups were left untreated or received 100 μL of phosphate-buffered saline (PBS).

[8] = target: T6, MAL-biotin binding to fetuin (Bos taurus, UniProt P12763); experiment: MAL-biotin binding to fetuin, binding inhibition assay; parameters: species or system Maackia amurensis; conditions: + enhancement, − inhibition; for Percent Changes in Binding Activity MAL/fetuin: peptide mg/mL: S2PL 1.2, ACS2P1 1.0, S2(14-2.3) 1.0, S2P2 1.1, S2P3 0.51, S2P4 0.98, S2P6 0.85, S3P1 3.2, S3P2 3.1, S3P3 4.5, S3P4 3.3, S3P5 0.48, S3P9a 1.7, SPYGRC 4.4, S2(WGA) 1.0, WGA (62-73) 1.0
T6 construct: purchased Sigma Chemical Company (fetuin); Boehringer Mannheim (MAL-biotin)
T6 sequence (P12763 19-359): T2 sequence (P12763 19-359)
Protocol: as §2, §3

Balb/c mice [9] = experiment: Persistence of suppression of DTH response on OVA re-challenge at 2 weeks; assay type: in vivo; conditions: mice treated as in Example 11, re-challenged at 2 weeks; FIG. 3
Source text: Identical groups of mice treated with the peptides in Example 11 above, were re-challenged with OVA antigen 2 weeks after primary immunization.

[10] = target: T7, ACS2P1-biotin binding to fetuin (Bos taurus, UniProt P12763); experiment: biochemical; conditions: for Percent Change in Binding Activity Fetuin: peptide μM: ACS2P1 4.1, S2P2 42.5, SPYGRC 5520, S2P3 22.4, S2P4 6.0, S2P6 319, S3P1 1142, S3P2 934, S3P3 16.1, S3P4 6.4, S3P5 22.5, ACS2P1-biotin 0.1 μg, − inhibition, + enhancement
T7 construct: purchased Sigma Chemical Company
T7 sequence (P12763 19-359): T2 sequence (P12763 19-359)

[11] = target: T8, PT-biotin binding to asialofetuin (Bos taurus, UniProt P12763); experiment: PT-biotin binding to asialofetuin, binding inhibition assay; parameters: species or system Bordetella pertussis; conditions: peptide mg/mL: S2PL 1.2, ACS2P1 1.0, S2P2 1.1, S2P3 0.51, S2P4 0.98, S2P6 0.85, S3P1 3.2, S3P2 3.1, S3P3 4.5, S3P4 3.3, S3P5 0.48, SPYGRC 4.4; + enhancement, − inhibition
T8 construct: made in house
T8 sequence (P12763 19-359): T2 sequence (P12763 19-359)
Protocol: as §2, §3

[12] = target: SPYGRC-biotin binding to fetuin (Bordetella pertussis, UniProt P04978); experiment: Inhibition of SPYGRC-biotin binding to fetuin by simple saccharides; conditions: saccharide 8 mM in PBS, 0.5 μg SPYGRC-biotin, fetuin 3 μg/ml, + enhancement
Protocol: Binding inhibition assays were done using sialic acid, sialyllactose, lactose, or N-acetyl-glucosamine at a concentration of 8 mM in PBS. […] The pH of free sialic acid was carefully monitored and adjusted to physiological pH values with dilute sodium hydroxide.

Molecule | Percent Changes in Binding Activity ACS2P1-biotin (n = 3) [1] [%] | Maximal Inhibitory Concentration for Greater than 50% Inhibition [2] | % Changes in Binding Activity, SNA-b to fetuin ([3]; SPYGRC peptide 4.4 mg/ml) [%] | Percent Changes in Binding Activity SNA/fetuin [3] | % Changes in Binding Activity, WGA-b to fetuin ([4]; SPYGRC peptide 4.4 mg/ml) | Percent Changes in Binding Activity WGA/fetuin [4] | % Changes in Binding Activity, PT-b to fetuin ([5]; SPYGRC peptide 4.4 mg/ml) | Percent Changes in Binding Activity PT/fetuin [5] | Percent Change in Binding Activity Asialofetuin [6] | effect on DTH inflammatory response (footpad swelling 24 hours after challenge), in words (Balb/c mice [7]) | % Changes in Binding Activity, MAL-5 to fetuin ([8]; SPYGRC peptide 4.4 mg/ml) [%] | Percent Changes in Binding Activity MAL/fetuin [8] | DTH response (footpad swelling) on later re-challenge with OVA antigen, in words (Balb/c mice [9]) | Percent Change in Binding Activity Fetuin [10] | Percent Changes in Binding Activity PT/asialo-fetuin [11] | Percent Changes in Binding Activity SPYGRC-biotin (n = 3) [12] [%] | inhibition of ACS2P1-biotin binding to fetuin, in words [10]
OC[C@H]1O[C@@](CO)(O[C@H]2O[C@H](CO)[C@@H](O)[C@H](O)[C@H]2O)[C@@H](O)[C@@H]1O [Sucrose] | 0 ± 3 |  |  |  |  |  |  |  |  |  |  |  |  |  |  |  | 
SPYGRC-CO—NH2 |  | 480 pg/mL | −2 ± 1 | −2 ± 2% | +7 + 3% | +7 ± 3% | +34 ± 2% | +34 ± 2% | −54 ± 3% | effective in reducing a DTH response in mice | −16 ± 0 | −16 ± 0% | reduced immune response | −24 ± 2% | +7 ± 9% |  | 
Sialyllactose | −46 ± 3 |  |  |  |  |  |  |  |  |  |  |  |  |  |  | −24 ± 6 | 
VAPGIVIPPKALFTQQGGAYGRC [Peptide S3P2] |  | NI (Not inhibitory at a peptide concentration of 300 ng/ml.) |  | +3 ± 3% |  | +9 ± 4% |  | +77 ± 59% | +12 ± 16% |  |  | +12 ± 16% |  | +88 ± 72% | +82 ± 11% |  | inability
